Values quoted from earlier work, collected in US20230255891A1, “Highly Compactable and Durable Direct Compression Excipients and Excipient Systems” (SPI Pharma, Inc., priority 2009, published 2023).

Assays:
[1] = in water at 25
[2] = for 80° C. Solubility Kilos/100 Kilo solution: spray liquid temperature; for solubility in water: at 80 C in solution

Solubility At 25 (g/100 g H2O) [1] | 80° C. Solubility Kilos/100 Kilo solution [2] | solubility in water [2] | Molecule
175 g/100 g H2O | 80.5 Kilos/100 Kilo solution | about 80% | OC[C@@H](O)[C@@H](O[C@H]1O[C@@H](CO)[C@@H](O)[C@@H](O)[C@H]1O)[C@H](O)[C@@H](O)CO [Maltitol]
– | 82 Kilos/100 Kilo solution | – | OC[C@@H](O)[C@@H](O[C@@H]1O[C@H](CO)[C@H](O)[C@H](O)[C@H]1O)[C@H](O)[C@@H](O)CO [Lactitol]
22 g/100 g H2O | 47.3 Kilos/100 Kilo solution | about 47% | OC[C@@H](O)[C@@H](O)[C@H](O)[C@H](O)CO [Mannitol]
200 g/100 g H2O | – | – | OC[C@@H](O)[C@H](O)[C@@H](O)CO [Xylitol]
185 g/100 g H2O | – | – | OC[C@H]1O[C@@](CO)(O[C@H]2O[C@H](CO)[C@@H](O)[C@H](O)[C@H]2O)[C@@H](O)[C@@H]1O [Sucrose]
235 g/100 g H2O | 92 Kilos/100 Kilo solution | about 92% | OC[C@@H](O)[C@@H](O)[C@H](O)[C@@H](O)CO [Sorbitol]

Continued, molecule first:

Molecule | Solubility At 25 (g/100 g H2O) [1] | 80° C. Solubility Kilos/100 Kilo solution [2] | solubility in water [2]
OC[C@@H](O)[C@@H](O)CO [Erythritol] | 61 g/100 g H2O | – | –
Anhydrous Isomalt | 39 g/100 g H2O | – | –
OCC(O)CO [Glycerin] | Soluble | – | –
O=C(CO)[C@@H](O)[C@H](O)[C@H](O)CO [Fructose] | 400 g/100 g H2O | – | –
OC[C@@H](O)[C@@H](O[C@@H]1O[C@H](CO)[C@H](O)[C@H](O)[C@H]1O)[C@H](O)[C@@H](O)CO [Lactitol Monohydrate] | 140 g/100 g H2O | – | –
Isomalt | – | 71 Kilos/100 Kilo solution | –
